In patent US11247998B2, “Piperazine heteroaryl derivative, preparation method therefor and use of same in medicine” (priority 2017, dated 2022):

What was measured:
[1] = Pharmacokinetics assay in rats after intragastrical administration (LC/MS/MS of plasma); assay type: in vivo; conditions: both sexes, rat, plasma, po, SD rats, 2 mg/kg
Method: Pharmacokinetics assay of the compound of the present invention
Rats were used as test animals. The drug concentration in plasma at different time points was determined by LC/MS/MS method after intragastrical administration of the compound of Example 1, the compound of Example 2, the compound of Example 4, the compound of Example 6, the compound of Example 7, the compound of Example 11, the compound of Example 39, the compound of Example 42, the compound of Example 44, the compound of Example 45 and the compound of Example 47 to rats. The pharmacokinetic behavior and property of the compound of the present invention were studied and evaluated in rats.
44 Healthy adult SD rats (half male and half female, 4 rats/group) were purchased from Shanghai Jiesijie Laboratory Animal Co., LTD, with Certificate No.: SCXK (Shanghai) 2013-0006.
A certain amount of the test compound was weighed, and added with 5% by volume of DMSO, 5% by volume of tween 80 and 90% by volume of normal saline to prepare a 0.2 mg/mL colorless, clear and transparent solution.
After an overnight fast, SD rats were administrated intragastrically with the test compound at an administration dose of 2.0 mg/kg and an administration volume of 10.0 mL/kg.
The rats were intragastrically administrated the compound of Example 1, the compound of Example 2, the compound of Example 4, the compound of Example 6, the compound of Example 7, the compound of Example 11, the compound of Example 39, the compound of Example 42, the compound of Example 44, the compound of Example 45 and the compound of Example 47. 0.1 ml of blood was taken from the orbit before administration and at 0.5, 1.0, 2.0, 4.0, 6.0, 8.0, 11.0 and 24.0 hours after administration. The samples were stored in heparinized tubes, and centrifuged for 10 minutes at 3500 rpm to separate the blood plasma. The plasma samples were stored at −20° C. The rats were fed two hours after administration.
The content of the test compound in the plasma of rats after intragastrical administration of the test compound at different concentrations was determined: 25 μL of rat plasma at each time after administration was taken, added with 40 μL of the internal standard solution of camptothecin (100 ng/mL) and 200 μL of acetonitrile, vortex-mixed for 5 minutes, and centrifuged for 10 minutes (4000 rpm). 0.2 μL of the supernatant was taken from the plasma samples for LC/MS/MS analysis.

[2] = Effect on in vitro proliferation of HepG2 cells (CellTiter-Glo); assay type: cell-based; conditions: human; HepG2 cells, 72 hours, CellTiter-Glo
Method: Test Example 2. Effect of the Compound of the Present Invention on In Vitro Proliferation of HepG2 Cells
HepG2 cells in logarithmic growth phase were taken and digested with trypsin to prepare a cell suspension, which was incubated in a 96-well plate (transparent bottom white 96-well plate, PerkinElmer) at 6,000 cells/well, at 5% carbon dioxide, 37° C. for 16-20 hours. On Day 2, the compound was dissolved in pure DMSO at a concentration of 20 mM. The compound was diluted in 3-fold concentration gradient using an automatic pipetting station (Bravo), 8 concentration points for each compound, and the control well was DMSO. The compound formulated in DMSO at each concentration point was diluted 200-fold with EMEM (containing 10% FBS) medium. The cell culture plate inoculated on Day 1 was taken out. The medium in the wells was removed by a negative pressure suction device, and the formulated medium containing the compound at each concentration was added respectively to each well at 100 μl/well. The plate was incubated at 37° C. for 72 hours. On Day 5, the 96-well cell culture plate was taken out, and freshly formulated CellTiter Glo was added to each well at 100 μl/well. The 96-well plate was left to stand for 5-10 minutes, the bottom was then sealed with a white bottom sealing film (PerkinElmer). The plate was placed in the microplate reader to measure the luminescence signal. The CC50 value of the compound was calculated with Graphpad Prism software according to each concentration of the compound and the corresponding proliferation inhibition signal value.
The inhibition effect of the compound of the present invention on in vitro proliferation of HepG2 cells was determined by the above experiment.

[3] = tested on: HBV DNA replication in HepG2.2.15 cells; assay: In vitro anti-HBV activity test (quantitative assay of intracellular HBV DNA), HepG2.2.15 cells, quantitative PCR; assay type: cell-based, hepatitis B virus (HBV); conditions: Hepatitis B virus, HBV DNA by quantitative PCR; for EC50: compound treatment Day 2 to Day 8; for Emax: read-out: Emax (effect value of the compound to maximally inhibit HBV DNA replication)
Method: In vitro anti-HBV activity test of the compound of the present invention (quantitative assay of intracellular HBV DNA)
HepG2.2.15 cell is a stable expression cell line that has integrated HBV genome.
Virus particles containing HBV DNA can be synthesized by replication, transcription and encapsidation in the cells, and then secreted. In this study, the quantitative analysis of HBV DNA produced by HepG2.2.15 in vitro proliferation was carried out by quantitative PCR method, thereby determining the activity of the compound of the present invention on inhibiting the HBV DNA replication by inhibiting the assembly of HBV capsid protein.
HepG2.2.15 cells were cultured in DMEM/high glucose medium (10% FBS, […] G418) and passaged every three days. On the day of the experiment, a cell suspension was prepared with fresh cell culture medium, and incubated in a 96-well plate (Corning, #3599) at 40,000 cells/well, at 5% carbon dioxide, 37° C. On Day 2, the compound was dissolved in pure DMSO at a concentration of 20 mM, and then the first concentration of 2 mM was formulated with DMSO, and diluted in 4-fold concentration gradient to 8 concentrations. A control well was added with 90 μl of DMSO. The compound solution was diluted 200-fold with DMEM/high glucose medium. The cell culture plate inoculated on Day 1 was taken out. The medium in the wells was removed by a negative pressure suction device, and the formulated medium containing the compound at each concentration was added respectively to each well at 200 μl/well. The plate was incubated at 37° C. for 72 hours. On Day 5, the medium of the cultured cells was replaced with fresh medium containing the same compound in the same way as Day 2, and then the plate was incubated at 37° C. for 72 hours. On Day 8, the cell culture plate was taken out, centrifuged at 300 g for 3 minutes, and the culture supernatant was collected at 200 μl/well. HBV DNA was extracted from the cell culture supernatant with Qiagen automatic DNA extraction device, and the specific method referred to the instructions of the reagents and instruments. Finally, the extracted DNA was eluted with DNA elution buffer at 100 μl/well. The extracted DNA was subjected to quantitative PCR analysis of HBV DNA using Hepatitis B virus nucleic acid quantitative detection kit (Triplex International Biosciences Co., Ltd.), and the specific method referred to the instruction of the kit. The quantitative standard curve was obtained with the standard sample provided in the kit, and the experiments were performed in parallel. Quantitative conversion of each sample was carried out according to the standard curve. Finally, the EC50 value of the compound was calculated with Graphpad Prism software according to each concentration of the compound and the corresponding DNA value.
The in vitro activity of the compound of the present invention on inhibiting the HBV DNA replication by inhibiting the assembly of HBV capsid protein was determined by the above experiment.

Q: Which Vd/F ([1]; read-out: Apparent distribution volume Vz/F) does the source give for `C[C@@H](NC(=O)c1ncn2c1CN(C(=O)Nc1cc(F)c(F)c(F)c1)CC2)C(F)(F)F` [Example 1, (R)—N^7-(3,4,5-Trifluorophenyl)-N^1-(1,1,1-trifluoropropan-2-yl)-5,6-dihydroimidazo[1,5-α]pyrazine-1,7(8H)-dicarboxamide] here?
A: The Vd/F was 2.36 ± 0.245 L/kg.

Q: And the AUC ([1]; read-out: Area under curve AUC)?
A: The AUC was 14400 ± 3010 ng·h/mL.

Q: And the bioavailability ([1]; read-out: Bioavailability (%) F %)?
A: The bioavailability was 119%.

Q: What about the CL/F ([1]; read-out: Clearance CLz/F) of the same compound?
A: Its CL/F is 2.39 ± 0.5 mL/min/kg.

Q: What about the half-life ([1]; read-out: Half-life T1/2 (converted)) of the same compound?
A: The half-life was 11.7 ± 2.3 h.

Q: And the Cmax ([1]; read-out: Plasma concentration Cmax)?
A: The Cmax was 640 ± 102 ng/mL.

Q: And the MRT ([1]; read-out: Residence time MRT)?
A: The MRT was 17.4 ± 3 h.

Q: Which results are given for `C[C@H]1Cn2ncc(C(=O)NC(C)(C)C)c2CN1C(=O)Nc1ccc(F)c(F)c1` [Example 8, (S)—N^3-(Tert-butyl)-N^5-(3,4-difluorophenyl)-6-methyl-6,7-dihydropyrazolo[1,5-α]pyrazine-3,5(4H)-dicarboxamide]?
A: CC50 at 72 h [2]: > 100000 nM; EC50 [3]: 15 nM; Emax [3]: 100%

Q: With `C[C@@H](NC(=O)c1cnn2c1CN(C(=O)Nc1ccc(F)c(C#N)c1)CC2)C(F)(F)F` [Example 9, (R)—N^5-(3-Cyano-4-fluorophenyl)-N^3-(1,1,1-trifluoropropan-2-yl)-6,7-dihydropyrazolo[1,5-α]pyrazine-3,5(4H)-dicarboxamide] as the compound, how does the CC50 at 72 h [2] read?
A: Its CC50 at 72 h is > 100000 nM.

Q: And the EC50 [3]?
A: Its EC50 is 28 nM.

Q: And the Emax [3]?
A: The Emax was 100%.

Q: What does the source list for `C[C@H]1Cn2ncc(C(=O)NC(C)(C)C)c2CN1C(=O)Nc1cc(F)c(F)c(F)c1` [Example 10, (S)—N^3-(Tert-butyl)-6-methyl-N^5-(3,4,5-trifluorophenyl)-6,7-dihydropyrazolo[1,5-α]pyrazine-3,5(4H)-dicarboxamide]?
A: CC50 at 72 h [2]: > 100000 nM; EC50 [3]: 29 nM; Emax [3]: 100%

Q: For `C[C@H]1Cn2cnc(C(=O)NC(C)(C)C)c2CN1C(=O)Nc1ccc(F)c(F)c1` [Example 12, (S)—N^1-(Tert-butyl)-N^7-(3,4-difluorophenyl)-6-methyl-5,6-dihydroimidazo[1,5-α]pyrazine-1,7-(8H)-dicarboxamide], which CC50 at 72 h [2] is on record?
A: The CC50 at 72 h was > 100000 nM.

Q: What about the EC50 [3] of the same compound?
A: The EC50 was 32 nM.

Q: And the Emax [3]?
A: The Emax was 100%.

Q: With `C[C@H]1Cn2cnc(C(=O)NC3(C)COC3)c2CN1C(=O)Nc1cc(F)c(F)c(F)c1` [Example 13, (S)-6-Methyl-N^1-(3-methyloxetan-3-yl)-N^7-(3,4,5-trifluorophenyl)-5,6-dihydroimidazo[1,5-α]pyrazine-1,7(8H)-dicarboxamide] as the compound, how does the CC50 at 72 h [2] read?
A: Its CC50 at 72 h is > 100000 nM.

Q: And the EC50 [3]?
A: Its EC50 is 35 nM.

Q: What about the Emax [3] of the same compound?
A: The Emax was 100%.

Q: Which results are given for `C[C@H]1Cn2ncc(C(=O)NC3(C)COC3)c2CN1C(=O)Nc1cc(F)c(F)c(F)c1` [Example 14, (S)-6-Methyl-N^3-(3-methyloxetan-3-yl)-N^5-(3,4,5-trifluorophenyl)-6,7-dihydropyrazolo[1,5-a]pyrazine-3,5(4H)-dicarboxamide]?
A: CC50 at 72 h [2]: > 100000 nM; EC50 [3]: 44 nM; Emax [3]: 100%

Q: Which CC50 at 72 h [2] does the source give for `C[C@H]1Cn2ncc(C(=O)N[C@H](C)C(F)(F)F)c2CN1C(=O)Nc1ccc(F)c(C#N)c1` [Example 15, (S)—N^5-(3-Cyano-4-fluorophenyl)-6-methyl-N^3-((R)-1,1,1-trifluoropropan-2-yl)-6,7-dihydropyrazolo[1,5-α]pyrazine-3,5(4H)-dicarboxamide] here?
A: Its CC50 at 72 h is > 100000 nM.

Q: And the EC50 [3]?
A: Its EC50 is 29 nM.

Q: And the Emax [3]?
A: The Emax was 100%.

Q: Which CC50 at 72 h [2] does the source give for `C[C@H]1Cn2ncc(C(=O)N[C@H](C)C(F)(F)F)c2CN1C(=O)Nc1cc(F)nc(F)c1` [Example 16, (S)—N^5-(2,6-Difluoropyridin-4-yl)-6-methyl-N^3-((R)-1,1,1-trifluoropropan-2-yl)-6,7-dihydropyrazolo[1,5-α]pyrazine-3,5(4H)-dicarboxamide] here?
A: Its CC50 at 72 h is > 100000 nM.

Q: And the EC50 [3]?
A: Its EC50 is 50 nM.

Q: And the Emax [3]?
A: The Emax was 100%.

Q: With `C[C@@H](NC(=O)c1nnn2c1CN(C(=O)Nc1cc(F)c(F)c(F)c1)CC2)C(F)(F)F` [Example 17, (R)—N^5-(3,4,5-Trifluorophenyl)-N^3-(1,1,1-trifluoropropan-2-yl)-6,7-dihydro-[1,2,3]triazolo[1,5-α]pyrazine-3,5(4H)-dicarboxamide] as the compound, how does the CC50 at 72 h [2] read?
A: Its CC50 at 72 h is > 100000 nM.

Q: What about the EC50 [3] of the same compound?
A: The EC50 was 70 nM.

Q: What about the Emax [3] of the same compound?
A: The Emax was 80%.

Q: Which CC50 at 72 h [2] does the source give for `Cc1cc(NC(=O)N2Cc3c(C(=O)N[C@H](C)C(F)(F)F)nnn3C[C@@H]2C)ccc1F` [Example 40, (S)—N^5-(4-Fluoro-3-methylphenyl)-6-methyl-N^3-((R)-1,1,1-trifluoropropan-2-yl)-6,7-dihydro-[1,2,3]triazolo[1,5-α]pyrazine-3,5(4H)-dicarboxamide] here?
A: The CC50 at 72 h was > 100000 nM.

Q: And the EC50 [3]?
A: Its EC50 is 20 nM.

Q: And the Emax [3]?
A: Its Emax is 100%.

Q: Which CC50 at 72 h [2] does the source give for `C[C@H](NC(=O)c1ncn2c1CN(C(=O)Nc1ccc(F)c(F)c1)[C@@H](C)C2)C(F)(F)F` [Example 41, (S)—N^7-(3,4-Difluorophenyl)-6-methyl-N^1—((S)-1,1,1-trifluoropropan-2-yl)-5,6-dihydroimidazo[1,5-α]pyrazine-1,7(8H)-dicarboxamide] here?
A: The CC50 at 72 h was > 100000 nM.

Q: And the EC50 [3]?
A: The EC50 was 24 nM.

Q: What about the Emax [3] of the same compound?
A: Its Emax is 100%.

Q: For `C[C@H]1Cn2cnc(C(=O)N3CCCC3)c2CN1C(=O)Nc1ccc(F)c(F)c1` [Example 59, (S)—N-(3,4-Difluorophenyl)-6-methyl-1-(pyrrolidine-1-carbonyl)-5,6-dihydroimidazo[1,5-α]pyrazine-7(8H)-carboxamide, reference compound], which EC50 [3] is on record?
A: Its EC50 is 5270 nM.

Q: What about the Emax [3] of the same compound?
A: Its Emax is 90%.
